One experiment concerns HBV genotype C. The experiment is described as follows: Anti-HBV properties in persistently infected dHepaRG cells, genotype C. To be noted: 10 microM three times. Format: cell-based, Hepatitis B virus. On the procedure:
FIG. 1. Experimental outlines. Treatment schemes: (a) Treatments in pre-infection: dHepaRG cells were treated for 24 h (at day −1) with 100 nM of PreS1 peptide (PreS1-pep) or 10 μM of 1C8, or untreated (NT). At day 0, cells were inoculated with HBV (MOI=250) or with HDV (MOI=25) in the presence of drugs for 24 h. For the tenofovir control (TDF at 10 μM), cells were treated at day 1 and 4 post-infection. Supernatant and cells were harvested at day 7 post-infection. (b) Treatments in post-infection: dHepaRG cells were inoculated with HBV (MOI=250) or with HDV (MOI=25). At days 4, 7 and 9 post infection, cells were treated with TDF 10 μM, lamivudine (3TC) at 10 μM, 1C8 10 μM or untreated (NT). […]
FIG. 6. […] B) HBs and HBe secreted antigens in supernatant were quantified by ELISA, whereas HBV DNA contained in virions was quantified by qPCR after viral nucleic acid extraction from supernatant. […] Statistics were done by two-tailed Mann-Whitney test, with following significativity: *P<0.05, **P<0.01, ***P<0.001, ****P<0.0001. nd=not determined. […]
(§1) From cell culture supernatants, secreted HBe and HBs antigens were quantified by ELISA, using a chemiluminescence immunoassay kit (Autobio, China) following manufacturer's instructions. […]
A HBV standard was used for quantification of extracellular viral DNA and RNA. […] CccDNA was normalized to β-Globin quantification. […]

In the next experiment the test system is HBV genotype D. As to the kind of experiment: De novo establishment of HBV infection/cccDNA in naive dHepaRG, genotype D (treatment before and during inoculation). Format: cell-based, Hepatitis B virus. Here is the method:
FIG. 1. Experimental outlines. Treatment schemes: (a) Treatments in pre-infection: dHepaRG cells were treated for 24 h (at day −1) with 100 nM of PreS1 peptide (PreS1-pep) or 10 μM of 1C8, or untreated (NT). At day 0, cells were inoculated with HBV (MOI=250) or with HDV (MOI=25) in the presence of drugs for 24 h. For the tenofovir control (TDF at 10 μM), cells were treated at day 1 and 4 post-infection. Supernatant and cells were harvested at day 7 post-infection. (b) Treatments in post-infection: dHepaRG cells were inoculated with HBV (MOI=250) or with HDV (MOI=25). At days 4, 7 and 9 post infection, cells were treated with TDF 10 μM, lamivudine (3TC) at 10 μM, 1C8 10 μM or untreated (NT). Supernatant and cells were harvested at day 11 postinfection.
FIG. 7. Effect of 1C8 on de novo establishment of ccDNA in dHepaRG (genotype D). […] B) HBs and HBe secreted antigens in supernatant were quantiUied by ELISA, whereas HBV DNA contained in virions was quantified by qPCR after viral nucleic acid extraction from supernatant. […] Statistics were done by two-tailed Mann-Whitney test, with following signiUicativity: *P<0.05, **P<0.01, ***P<0.001, ****P<0.0001. nd=not determined.
Human liver progenitor HepaRG cells were cultured in Williams medium (ThermoFisher) supplemented with 10% of FBS (Perbio), Penicillin/Streptomycin (500 U/mL), glutamine (2 mM), hydrocortisone Upjohn (2.5 mg/L; Serb laboratory), insulin (5 mg/L; Sigma Aldrich). […] The multiplicity of infection (MOI; expressed as virus genome equivalent/cell) is indicated in the figure legends, but was of 100 vge/cell if not precised.
as §1
A HBV standard was used for quantification of extracellular viral DNA and RNA. For cccDNA quantification total DNA was digested by T5 exonuclease (New England Biolabs) for 6 hours at 37° C. then submitted to qPCR using Taqman Fast Advanced Master Mix (Life Technologies). […]

Another experiment concerns the target SRSF1 (Homo sapiens, UniProt Q07955). As to conditions: cited from earlier work.

This is an account of results in patent US20210052566A1, “METHODS FOR TREATING HEPATITIS B VIRUS (HBV) INFECTION” (INSERM (INSTITUT NATIONAL DE LA SANTÉ ET DE LA RECHERCHE …, priority 2018, published 2021).

Chain of SRSF1 (Q07955 whole entry, species assumed): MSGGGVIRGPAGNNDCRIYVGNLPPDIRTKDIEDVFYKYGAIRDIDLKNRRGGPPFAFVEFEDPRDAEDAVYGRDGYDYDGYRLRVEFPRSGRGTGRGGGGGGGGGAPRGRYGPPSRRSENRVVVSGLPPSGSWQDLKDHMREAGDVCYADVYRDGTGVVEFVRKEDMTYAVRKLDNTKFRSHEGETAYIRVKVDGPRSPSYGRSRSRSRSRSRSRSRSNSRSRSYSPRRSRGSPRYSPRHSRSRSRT

Regarding `Cn1ccc(=O)c(C(=O)Nc2nsc3ccc([N+](=O)[O-])cc23)c1` [1C8, 4-pyridinonebenzisothiazole carboxamide], in the experiment with HBV genotype C, the “antiviral properties against genotype C virus” value is “retained antiviral properties against this strain, although with a slightly reduced efficacy”. Moreover, in the experiment with HBV genotype D (Hepatitis B virus, dHepaRG treated before and during HBV inoculation, 10 microM), the inhibition (usually the drop in the measured response relative to a control, in per cent) at 10 µM amounted to 50%. Further, the “other viral markers (intracellular RNAs, HBeAg, HBsAg), genotype D” value with HBV genotype D (dHepaRG treated before and during inoculation, 10 microM) is on record as “also reduced”. In addition, in the experiment on HBV genotype D (dHepaRG treated before and during inoculation, 1C8 and TDF 10 microM, Entry Inh. 100 nM, stated for genotypes D and C together), the “inhibition of cccDNA establishment compared with controls (entry inhibitor, TDF)” value is “lower than that obtained with an entry inhibitor, but higher than that obtained with a NUC”. The “inhibition of SRSF1” value on SRSF1 was “does not inhibit”.
